Consider one compound from publication PMC3125149, “SCYX-7158, an Orally-Active Benzoxaborole for the Treatment of Stage 2 Human African Trypanosomiasis” (PLoS Neglected Tropical Diseases, 2011).

Data set [1] deals with T. b. brucei, T. b. rhodesiense and T. b. gambiense strains. The data set is described as follows: Whole cell assays across representative strains (text summary of Table 1). It counts as cell-based. The note with it: Trypanosoma brucei; 72 h incubation; range over strains of Table 1; read-out: IC50 values across parasite strains. The method, then:
Compounds to be tested were serially diluted in DMSO and added to 96-well plates to give final concentrations ranging from 5 to 0.01 µg/mL. T. b. brucei parasites in the log phase of growth were diluted in HMI-9 media and added to each well for a final concentration of 1×10^4 parasites per well. For the sensitivity assays using T. b. rhodesiense and T. b. gambiense, pararasites were cultured in MEM supplemented with Baltz components (8), diluted in the aforementioned culture media, and added to each well at a density of 1×10^3 cells/well. The final concentration of DMSO was 0.5% and the total volume was 100 µL/well. After a 72 h incubation, resazurin (Sigma-Aldrich, St. Louis, MO) was added to each well [20 µL of 25 mg/100 mL stock in phosphate buffered saline (PBS)] and incubated for an additional 4–6 h.[22] To assess cell viability, fluorescence was quantified using an EnVision Multilabel Plate Reader (Perkin Elmer, Waltham, MA) at an excitation wavelength of 530 nm and emission of 590 nm. Triplicate data points were averaged to generate sigmoidal dose-response curves and determine IC50 values using XLfit curve fitting software from IDBS (Guilford, UK). The IC50 is defined as the amount of compound required to decrease parasite or cell viability by 50% compared to those grown in the absence of the test compound. […]

Another data set has as its system >100 biochemical targets. The data set is described as follows: Array of in vitro receptor binding and enzyme inhibition assays. The note with it: test concentration 10 µM.
Data set [2] in a line: Pharmacokinetics in uninfected mice. It counts as in vivo, mouse. The note with it: for Kp: read-out: brain to plasma ratio based on AUC0–24 h; for AUC(0-t): read-out: AUC0–24 h. As for the experimental part:
The blood distribution, CNS disposition and pharmacokinetics of SCYX-7158 were evaluated in infected or non-infected rodents following intravenous or oral administration of compounds. Pharmacokinetics and bioavailability of SCYX-7158 were also evaluated in non-infected beagle dogs and cynomolgus monkeys. In-life phases of non-infected rodent studies were performed at Vivisource (Waltham, MA); studies in non-naïve cynomolgus monkeys were performed by SNBL USA (Everett, WA). Male CD-1 mice (∼25 g), male Sprague-Dawley rats (∼225 g), or male cynomolgus monkeys (∼3–5 kg) were administered test article by either bolus intravenous injection (IV) or oral gavage. Animals in the IV groups received a single 2 mg/kg IV dose. Animals received oral doses of test articles as either single or twice daily doses ranging from 8 mg/kg to 50 mg/kg. All doses were administered as clear colorless solutions in either 50% (v/v) PEG 400: 20% (v/v) ethanol: 30% (v/v) carboxymethylcellulose (0.5% w/v in sterile water for injection) or 2% (v/v) ethanol: 5% (w/v) dextrose in sterile water for injection. […] For pharmacokinetic analysis, blood samples were collected from mice via cardiac puncture under terminal anaesthesia. Serial blood samples were collected from rats via a vascular access port located in the lateral saphenous vein. Mice and rats were euthanized in a CO2 chamber before collection of terminal blood samples or brain tissue. Blood samples were collected into polypropylene tubes containing K2EDTA anticoagulant and stored on ice until centrifuged for the preparation of plasma. Plasma was stored at −70°C. Whole brains were collected following decapitation, blotted dry, placed into polypropylene containers and then immediately frozen at approximately −70°C. CSF was collected from rats via cisterna magna puncture, placed in sterile polypropylene tubes, and stored at approximately −70°C. […] Treated samples were gently mixed at room temperature for 10 min, and then centrifuged at approximately 3000×g for 15 min at 15°C. The supernatants were transferred to 96-well plates or HPLC vials for analysis by LC-MS/MS. Pharmacokinetic parameters were calculated from composite mean plasma or tissue data using non-compartmental (oral and intravenous routes) and bi-exponential (intravenous route) analyses in Microsoft Excel.

A further data set can be described thus: Lipophilicity. Type of data set: physicochemical. The source says:
Table 3 In vitro physicochemical and ADME properties of SCYX-7158. | column: Value

The nature of data set [3]: Stability in plasma or brain homogenate. Type of data set: in vitro ADME. The note with it: incubated with plasma or brain homogenate for 4 h at 37°C. As for the experimental part:
Binding to human or mouse plasma proteins or mouse brain homogenate was determined by rapid equilibrium dialysis (RED) (Pierce, Rockford, IL) using a 48-well plate-based format according to the manufacturer's instructions. Briefly, test compound at the required concentrations was added to fresh human or mouse plasma (Bioreclamation, Liverpool, NY) or freshly prepared mouse brain homogenate. Duplicate aliquots of each sample were transferred into the sample chambers of the RED devices, and dialysis buffer (BupH PBS) was added to the buffer chambers. The plates were sealed and incubated at 37°C for 4 h. After dialysis, samples collected from the buffer and tissue chambers were treated with ice-cold methanol (3 volumes for plasma, 4 volumes for brain) to precipitate proteins. The treated samples were centrifuged for 10 min at 3×10^3 g at 15°C. The supernatants were assayed for test compound by LC-MS/MS. Calibration standards and quality control samples were prepared in matched matrix and assayed with samples. Values for unbound and bound fractions and mass balance were calculated. Concordance of binding for each batch of plasma was confirmed by assay of warfarin, imipramine and carbamezapine. […] The stability of each oxaborole in the CNS tissue was evaluated by incubation in fresh rodent brain homogenate. […] Supernatants from the incubation mixtures were analyzed for parent compound by LC-MS/MS.

Data set [4] deals with T1, hERG channel expressed in HEK-293 cells (Homo sapiens, UniProt Q12809).
T1 construct: expressed in transfected cells; host or cells: HEK-293
T1 sequence (Q12809 whole entry): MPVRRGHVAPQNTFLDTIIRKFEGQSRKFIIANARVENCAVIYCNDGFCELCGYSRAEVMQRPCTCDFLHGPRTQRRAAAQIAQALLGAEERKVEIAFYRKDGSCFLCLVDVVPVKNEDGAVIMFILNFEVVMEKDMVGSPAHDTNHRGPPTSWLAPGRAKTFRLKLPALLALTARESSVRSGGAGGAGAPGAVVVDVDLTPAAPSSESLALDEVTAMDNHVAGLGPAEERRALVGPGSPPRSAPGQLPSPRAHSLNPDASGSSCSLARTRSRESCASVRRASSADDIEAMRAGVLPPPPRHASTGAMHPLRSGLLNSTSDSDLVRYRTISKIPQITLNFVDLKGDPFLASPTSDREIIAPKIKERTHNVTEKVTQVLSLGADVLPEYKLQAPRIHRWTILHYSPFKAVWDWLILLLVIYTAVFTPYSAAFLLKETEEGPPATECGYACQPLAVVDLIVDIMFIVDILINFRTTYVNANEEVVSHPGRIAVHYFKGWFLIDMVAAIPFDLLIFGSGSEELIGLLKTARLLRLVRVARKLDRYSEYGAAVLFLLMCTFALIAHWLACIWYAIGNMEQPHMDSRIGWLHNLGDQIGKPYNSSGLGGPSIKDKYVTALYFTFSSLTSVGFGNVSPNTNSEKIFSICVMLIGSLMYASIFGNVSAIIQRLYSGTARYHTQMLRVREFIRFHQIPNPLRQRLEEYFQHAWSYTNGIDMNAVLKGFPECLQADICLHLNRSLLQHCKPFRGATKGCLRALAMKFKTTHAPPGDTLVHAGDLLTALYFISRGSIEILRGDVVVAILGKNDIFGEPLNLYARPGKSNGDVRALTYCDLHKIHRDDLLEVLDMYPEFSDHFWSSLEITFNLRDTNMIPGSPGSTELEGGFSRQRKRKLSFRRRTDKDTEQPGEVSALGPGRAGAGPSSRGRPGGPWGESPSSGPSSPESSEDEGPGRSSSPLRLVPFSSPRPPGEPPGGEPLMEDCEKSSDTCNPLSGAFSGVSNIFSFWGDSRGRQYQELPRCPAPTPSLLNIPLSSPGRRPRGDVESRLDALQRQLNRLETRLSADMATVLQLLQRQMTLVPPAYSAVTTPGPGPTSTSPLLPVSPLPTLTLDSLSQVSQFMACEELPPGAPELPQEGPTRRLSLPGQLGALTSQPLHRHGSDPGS
The data set is described as follows: hERG whole-cell patch clamp. Type of data set: cell-based. On the technique in general: hERG is a cardiac potassium channel; its block is linked to QT prolongation.

Another data set addresses hERG potassium channel (Homo sapiens, UniProt Q12809). The data set is described as follows: hERG radioligand binding assay. The note with it: at 10 µM.

In brackets after ≈: the same amount, converted by molar mass. Read-outs that look alike come from different tables or passages of the source.

Sequence of hERG potassium channel (Q12809 whole entry): as above

In the case of `CC1(C)OB(O)c2cc(NC(=O)c3ccc(F)cc3C(F)(F)F)ccc21` [SCYX-7158], the half-inhibitory concentration (IC50) (in general, the midpoint of a concentration-inhibition curve) was 0.07 to 0.37 µg/mL (≈ 0.191 to 1.01 µM) in data set [1] and above 100 µM in data set [4] (indicated by patch clamp fractional block). The “binding to or inhibition of off-target panel” value with >100 biochemical targets was “did not exhibit any significant binding to, or inhibition of”. Also, the “brain AUC0–24 h” value in data set [2] (13.4 mg/kg oral, brain) turned out to be 31400 ng·h/mL; in data set [2] (26 mg/kg oral, brain) it was 68000 ng·h/mL. Moreover, the “time of Cmax” value in data set [2] (13.4 mg/kg oral, plasma) stood at 6 h. The Kp worked out at 0.38 in data set [2] (male, CD-1, mouse, brain and plasma, 13.4 mg/kg oral); 0.6 in data set [2] (male, CD-1, mouse, brain/plasma, 26 mg/kg oral). Further, the bioavailability (as a rule, the share of a dose that reaches the circulation, judged against a reference dose that is usually intravenous) in data set [2] (male, CD-1, mouse, plasma, 13.4 mg/kg oral, read-out: absolute oral bioavailability) was 55%. The CL/F in data set [2] (male, CD-1, mouse, plasma, 13.4 mg/kg oral, read-out: oral clearance (Cl/F) (converted)) is 2.72 mL/min/kg. Also, the AUC(0-t) stood at 48000 ng·h/mL in data set [2] (male, CD-1, mouse, 4.3 mg/kg intravenous, plasma); 82000 ng·h/mL in data set [2] (male, CD-1, mouse, 13.4 mg/kg oral, plasma); 113000 ng·h/mL in data set [2] (male, CD-1, mouse, 26 mg/kg oral, plasma). For the same compound, the half-life in data set [2] (male, CD-1, mouse, 4.3 mg/kg intravenous, plasma, read-out: apparent elimination half-life (t1/2) (converted)) is 26.6 h. For the same compound, the Cmax (in general, the highest concentration seen after dosing) in data set [2] (male, CD-1, mouse, 13.4 mg/kg oral, brain, read-out: Cmax in brain tissue) amounted to 4620 ng/mL; in data set [2] (male, CD-1, mouse, 13.4 mg/kg oral, plasma, read-out: Cmax) it was 6960 ng/mL; in data set [2] (male, CD-1, mouse, 26 mg/kg oral, brain, read-out: Cmax in brain tissue) it was 8100 ng/mL; in data set [2] (male, CD-1, mouse, 26 mg/kg oral, plasma, read-out: Cmax), 9800 ng/mL. Moreover, the logD (usually lipophilicity at a set pH, counting ionised and neutral species) in the data set “Lipophilicity” was found to be 3.51. In data set [3], the stability entry is “stable”. Also, the values for the mean fractional block in data set [4] (30 µM) and in data set [4] (100 µM) were 0.108±0.037 and 0.198±0.018, respectively. In addition, the “binding to hERG channel” value at hERG potassium channel is given as −6%.
